Test results reported in ChEMBL document CHEMBL1122915, “Synthesis and biological activity of carboxylic acid replacement analogues of the potent angiotensin converting enzyme inhibitor 5(S)-benzamido-4-oxo-6-phenylhexanoyl-L-proline” (J Med Chem, 1985).

Biological target: T1, Angiotensin-converting enzyme (Rattus norvegicus, UniProt P47820)
T1 sequence (P47820 whole entry): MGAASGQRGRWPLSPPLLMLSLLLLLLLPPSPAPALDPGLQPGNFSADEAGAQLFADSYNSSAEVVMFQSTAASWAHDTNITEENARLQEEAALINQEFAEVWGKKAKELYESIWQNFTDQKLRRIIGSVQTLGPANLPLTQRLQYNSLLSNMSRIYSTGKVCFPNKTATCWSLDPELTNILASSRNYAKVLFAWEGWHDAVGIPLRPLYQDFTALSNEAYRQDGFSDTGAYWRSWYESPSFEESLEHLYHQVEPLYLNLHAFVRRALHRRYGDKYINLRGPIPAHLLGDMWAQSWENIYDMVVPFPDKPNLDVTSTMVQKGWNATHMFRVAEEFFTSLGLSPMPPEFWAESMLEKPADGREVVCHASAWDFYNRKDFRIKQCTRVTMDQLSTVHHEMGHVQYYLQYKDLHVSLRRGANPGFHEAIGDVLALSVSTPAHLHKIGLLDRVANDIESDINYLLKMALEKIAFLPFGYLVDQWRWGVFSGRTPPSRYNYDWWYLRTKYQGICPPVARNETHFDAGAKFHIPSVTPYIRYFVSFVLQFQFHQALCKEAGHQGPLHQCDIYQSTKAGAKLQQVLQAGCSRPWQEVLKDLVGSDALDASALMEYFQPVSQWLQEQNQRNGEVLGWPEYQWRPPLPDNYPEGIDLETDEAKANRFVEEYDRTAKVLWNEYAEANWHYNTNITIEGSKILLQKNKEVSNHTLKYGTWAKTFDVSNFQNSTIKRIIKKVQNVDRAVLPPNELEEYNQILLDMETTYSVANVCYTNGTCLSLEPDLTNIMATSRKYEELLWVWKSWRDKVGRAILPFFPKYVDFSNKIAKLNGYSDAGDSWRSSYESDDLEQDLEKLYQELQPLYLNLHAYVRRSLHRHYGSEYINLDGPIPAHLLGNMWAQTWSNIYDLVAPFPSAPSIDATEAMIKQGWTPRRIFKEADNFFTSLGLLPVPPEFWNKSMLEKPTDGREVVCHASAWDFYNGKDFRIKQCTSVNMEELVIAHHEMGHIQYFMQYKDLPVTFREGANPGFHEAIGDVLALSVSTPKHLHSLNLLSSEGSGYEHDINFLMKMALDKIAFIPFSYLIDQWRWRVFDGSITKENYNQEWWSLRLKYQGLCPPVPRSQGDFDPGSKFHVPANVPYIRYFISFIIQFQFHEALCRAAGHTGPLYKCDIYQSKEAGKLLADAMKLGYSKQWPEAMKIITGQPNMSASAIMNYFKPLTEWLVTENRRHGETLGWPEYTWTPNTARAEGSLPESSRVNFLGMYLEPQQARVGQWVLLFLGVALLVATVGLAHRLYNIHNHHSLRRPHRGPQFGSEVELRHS
Test: In vivo inhibitory activity against Angiotensin I converting enzyme was evaluated in renal hypertensive rats
Format: organism-based
Conditions: read-out: I50

Structure (SMILES)	IC50
O=C(O)[C@@H]1CCCN1C(=O)CCS	200 nM
C[C@@H](CS)C(=O)N1CCC[C@H]1c1nn[nH]n1	260 nM
O=C(CCS)N1CCCC1P(=O)(O)O (centres undefined)	1700 nM
C[C@@H](CS)C(=O)N1CCC[C@H]1C(=O)NO	22 nM
